The values below come from ChEMBL document CHEMBL4622952, “Synthesis and biological evaluation of Schizandrin derivatives as tubulin polymerization inhibitors” (Bioorg Med Chem Lett, 2020).

The pIC50 is the IC50 on a negative log10 scale, so that one unit is a factor of ten.

Assay [1] relates to DU-145. The assay is described as follows: Antiproliferative activity against human DU145 cells assessed as reduction in cell viability measured after 48 hrs by MTT assay. The class given is functional, cell-based. As to conditions: for pIC50: DU-145, 48 h. In general terms: Formazan colour is commonly taken as a measure of viable cells.
Assay [2] deals with HeLa. Briefly: Antiproliferative activity against human HeLa cells assessed as reduction in cell viability measured after 48 hrs by MTT assay. The class given is functional, cell-based.
Assay [3] is filed under the species Homo sapiens. Briefly: (§1) Antiproliferative activity against human RKOP3 cells assessed as reduction in cell viability measured after 48 hrs by MTT assay. It is filed as functional, cell-based.
Assay [4] in a line: as §1. It is filed as functional, cell-based.
Assay [5] deals with HEK293. The assay is described as follows: Cytotoxicity against human HEK293 cells assessed as reduction in cell viability measured after 48 hrs by MTT assay. It is filed as cell-based. As to conditions: Homo sapiens, HEK293, 48 h; read-out: IC50.
Assay [6] relates to A549. Briefly: Antiproliferative activity against human A549 cells assessed as reduction in cell viability measured after 48 hrs by MTT assay. The class given is functional, cell-based. Conditions: for pIC50: A549, 48 h.
Assay [7] concerns DU-145. The assay is described as follows: Induction of apoptosis in human DU145 cells assessed as live cells at 5 uM measured after 48 hrs by annexinV-FITC/propidium iodide staining based flow cytometry analysis (reference value: 97.09 %). The class given is functional. In general terms: A flow cytometer gives signals particle by particle.
Assay [8] concerns the target T1, Tubulin (Homo sapiens) (UniProt P68371+Q9H4B7+P0DPH7+P68366+Q13509+Q71U36+P04350+Q3ZCM7+P07437+P68363+Q9BQE3+Q6PEY2+Q13885+Q9BVA1+Q9BUF5). Briefly: Inhibition of tubulin polymerization in human HeLa cells assessed as disruption of microtubule network at 10 uM measured after 24 hrs by immunofluorescence assay. The class given is cell-based.
In assay [9] the test system is DU-145. The assay is described as follows: Induction of apoptosis in human DU145 cells assessed as live cells at 1.5 uM measured after 48 hrs by annexinV-FITC/propidium iodide staining based flow cytometry analysis (reference value: 97.09 %). The class given is functional.
The subject of assay [10] is DU-145. The assay is described as follows: Induction of apoptosis in human DU145 cells assessed as early apoptotic cells at 5 uM measured after 48 hrs by annexinV-FITC/propidium iodide staining based flow cytometry analysis (reference value: 2.34 %). It is filed as functional.
Assay [11] has as its system DU-145. Briefly: Induction of apoptosis in human DU145 cells assessed as necrotic cells at 5 uM measured after 48 hrs by annexinV-FITC/propidium iodide staining based flow cytometry analysis (reference value: 0.52 %). It is filed as functional.
The subject of assay [12] is DU-145. Briefly: Induction of apoptosis in human DU145 cells assessed as live cells at 3.5 uM measured after 48 hrs by annexinV-FITC/propidium iodide staining based flow cytometry analysis (reference value: 97.09 %). The class given is functional.
For assay [13], the system named is DU-145. Briefly: Induction of apoptosis in human DU145 cells assessed as late apoptotic cells at 5 uM measured after 48 hrs by annexinV-FITC/propidium iodide staining based flow cytometry analysis (reference value: 0.05 %). The class given is functional.
Assay [14] has as its target T1, Tubulin (Homo sapiens). Briefly: Inhibition of tubulin […] in human DU145 cells assessed as increase in soluble fraction of tubulin at […] measured after 24 hrs by Western blot analysis. It is filed as cell-based. Conditions: DU-145.
Assay [15] relates to DU-145. The assay is described as follows: Induction of apoptosis in human DU145 cells assessed as late apoptotic cells at 3.5 uM measured after 48 hrs by annexinV-FITC/propidium iodide staining based flow cytometry analysis (reference value: 0.05 %). It is filed as functional.
Assay [16] deals with DU-145. Briefly: Induction of apoptosis in human DU145 cells assessed as necrotic cells at 3.5 uM measured after 48 hrs by annexinV-FITC/propidium iodide staining based flow cytometry analysis (reference value: 0.52 %). It is filed as functional.
The test system of assay [17] is DU-145. Briefly: Induction of apoptosis in human DU145 cells assessed as early apoptotic cells at 1.5 uM measured after 48 hrs by annexinV-FITC/propidium iodide staining based flow cytometry analysis (reference value: 2.34 %). The class given is functional.
The test system of assay [18] is DU-145. Briefly: Induction of apoptosis in human DU145 cells assessed as late apoptotic cells at 1.5 uM measured after 48 hrs by annexinV-FITC/propidium iodide staining based flow cytometry analysis (reference value: 0.05 %). The class given is functional.
In assay [19] the test system is DU-145. The assay is described as follows: Induction of apoptosis in human DU145 cells assessed as early apoptotic cells at 3.5 uM measured after 48 hrs by annexinV-FITC/propidium iodide staining based flow cytometry analysis (reference value: 2.34 %). It is filed as functional.
Assay [20] relates to DU-145. The assay is described as follows: Induction of apoptosis in human DU145 cells assessed as necrotic cells at 1.5 uM measured after 48 hrs by annexinV-FITC/propidium iodide staining based flow cytometry analysis (reference value: 0.52 %). It is filed as functional.
In assay [21] the test system is DU-145. The assay is described as follows: Cell cycle arrest in human DU145 cells assessed as accumulation at G0/G1 phase at 1.5 uM measured after 24 hrs by propidium iodide staining based flow cytometry analysis (reference value: 58.2 %). It is filed as functional.
The test system of assay [22] is DU-145. The assay is described as follows: Cell cycle arrest in human DU145 cells assessed as accumulation at G0/G1 phase at 3 uM measured after 24 hrs by propidium iodide staining based flow cytometry analysis (reference value: 58.2 %). The class given is functional.
The test system of assay [23] is DU-145. The assay is described as follows: Cell cycle arrest in human DU145 cells assessed as accumulation at G0/G1 phase at 5 uM measured after 24 hrs by propidium iodide staining based flow cytometry analysis (reference value: 58.2 %). The class given is functional.

Each structure is given as a SMILES string. pIC50: −log10 of the molar value. Active and inactive are the calls of the source. The calls are words filed in the database; no cut-off is given here.

In the case of `COC1=C(OC)C23C(=CC1=O)C[C@H](C)[C@@]2(C)Cc1cc(OC)c(OC)c(OC)c13` (some centres not stated), the inhibition result in [1], in assay [2], in [3] and in assay [6] was “Dose-dependent effect” each time. Also, the pIC50 was 5.02 in [1]; 5.37 in [2]; 4.30 in assay [4]; 4.30 in assay [5]; 5.11 in assay [6].
Regarding `COC1=C(OC)C23C(=C/C1=N\OC(=O)C1CC1)C[C@H](C)[C@@]2(C)Cc1cc(OC)c(OC)c(OC)c13` (some centres not stated), the inhibition entry in [1], in [2], in assay [3] and in [6] was “Dose-dependent effect” each time. Also, the pIC50 in assay [1] is 4.30; in [2], 4.82; in [4] it was 4.22; in [5], 4.18; in [6] it was 5.11.
Consider `COC1=C(OC)C23C(=C/C1=N\OC(=O)c1ccc(Br)cc1)C[C@H](C)[C@@]2(C)Cc1cc(OC)c(OC)c(OC)c13` (some centres not stated), for which the inhibition entry in [1], in assay [2], in assay [3] and in [6] was “Dose-dependent effect” each time. In addition, the pIC50 in [1] was 4.69; in assay [2] it was 5.13; in [4], 5.01; in assay [5], 3.87; in assay [6], 5.23.
On to `COc1cc2c(c(OC)c1OC)-c1c(cc(OC)c(OC)c1OC)C[C@](C)(O)[C@@H](C)C2` [SCHIZANDRIN], for which the inhibition entry in assay [1], in assay [2], in [3] and in assay [6] was “Dose-dependent effect” throughout. The pIC50 in assay [1] was 5.27; in assay [2], 5.30; in [4], 5.27; in [5] it was 4.09; in assay [6], 5.07.
As to `COC1=C(OC)C23C(=C/C1=N\OC(=O)c1ccc(F)cc1)C[C@H](C)[C@@]2(C)Cc1cc(OC)c(OC)c(OC)c13` (some centres not stated), the inhibition result in assay [1], in assay [2], in [3] and in [6] was “Dose-dependent effect” in each case. Further, the pIC50 in [1] was 4.78; in assay [2], 5.26; in assay [4], 4.68; in assay [5], 4.09; in [6] it was 5.04.
As to `COC1=C(OC)C23C(=C/C1=N\O)C[C@H](C)[C@@]2(C)Cc1cc(OC)c(OC)c(OC)c13` (some centres not stated), the inhibition result in assay [1], in assay [2], in [3] and in [6] was “Dose-dependent effect” throughout. For the same compound, the pIC50 in [1] was 5.12; in [2], 4.30; in [4] it was 4.25; in assay [5] it was 4.26; in [6] it was 5.07.
Regarding `CCC(=O)O/N=C1\C=C2C[C@H](C)[C@@]3(C)Cc4cc(OC)c(OC)c(OC)c4C23C(OC)=C1OC` (some centres not stated), the Activity in assay [7] is recorded as 68.98%; in assay [9], 75.71%; in assay [10], 29.44%; in [11] it was 0.04%; in assay [12], 68.5%; in [13], 1.54%. For the same compound, the Activity was 3.87% in assay [15]; 0.07% in [16]; 23.33% in assay [17]; 0.96% in assay [18]; 27.56% in assay [19]; 0% in assay [20]. For the same compound, the Activity is 66.97% in assay [21], 66.4% in [22] and 71.07% in assay [23]. The inhibition entry in assay [8] and in assay [14] was “Active” throughout. The inhibition result in assay [1], in assay [2], in assay [3] and in [6] was “Dose-dependent effect” throughout. Further, the pIC50 in assay [1] was 5.47; in assay [2], 4.34; in assay [4], 4.22; in assay [5] it was 4.19; in assay [6], 5.19.
As for `CCCCC(=O)O/N=C1\C=C2C[C@H](C)[C@@]3(C)Cc4cc(OC)c(OC)c(OC)c4C23C(OC)=C1OC` (some centres not stated), the inhibition result in assay [1], in assay [2], in assay [3] and in assay [6] was “Dose-dependent effect” in each case. For the same compound, the pIC50 in [1] was 4.64; in assay [2] it was 4.89; in [4] it was 4.83; in assay [5], 3.95; in assay [6], 5.16.
With `CCOC(=O)CCC(=O)O/N=C1\C=C2C[C@H](C)[C@@]3(C)Cc4cc(OC)c(OC)c(OC)c4C23C(OC)=C1OC` (some centres not stated), the inhibition entry in [1], in [2], in [3] and in [6] was “Dose-dependent effect” each time. Besides, the pIC50 is 4.60 in [1]; 5.08 in assay [2]; 4.65 in [4]; 4.07 in [5]; 5.08 in assay [6].
Turning to `COC1=C(OC)C23C(=C/C1=N\OC(=O)C(C)C)C[C@H](C)[C@@]2(C)Cc1cc(OC)c(OC)c(OC)c13` (some centres not stated), the inhibition entry in assay [1], in assay [2], in assay [3] and in assay [6] was “Dose-dependent effect” each time. For the same compound, the pIC50 in assay [1] was 4.59; in assay [2], 5.32; in assay [4] it was 4.81; in [5] it was 4.09; in assay [6] it was 5.22.
Consider `COC1=C(OC)C23C(=C/C1=N\OC(=O)c1c(Cl)cc(Cl)cc1Cl)C[C@H](C)[C@@]2(C)Cc1cc(OC)c(OC)c(OC)c13` (some centres not stated), for which the inhibition entry in [1], in assay [2], in assay [3] and in assay [6] was “Dose-dependent effect” in each case. Moreover, the pIC50 in assay [1] is 4.43; in assay [2], 4.29; in assay [4], 4.39; in [5] it was 4.10; in assay [6] it was 5.13.
Consider `COC(=O)Nc1nc2cc(C(=O)c3cccs3)ccc2[nH]1`, for which the inhibition result in assay [14] is “Active”.
